Results on eight molecules are retold here after ChEMBL document CHEMBL1151759 (J Med Chem, 2008).

Data set [1] addresses T1, Neuropeptide Y receptor type 1 (Homo sapiens, UniProt P25929).
T1 sequence (P25929 whole entry): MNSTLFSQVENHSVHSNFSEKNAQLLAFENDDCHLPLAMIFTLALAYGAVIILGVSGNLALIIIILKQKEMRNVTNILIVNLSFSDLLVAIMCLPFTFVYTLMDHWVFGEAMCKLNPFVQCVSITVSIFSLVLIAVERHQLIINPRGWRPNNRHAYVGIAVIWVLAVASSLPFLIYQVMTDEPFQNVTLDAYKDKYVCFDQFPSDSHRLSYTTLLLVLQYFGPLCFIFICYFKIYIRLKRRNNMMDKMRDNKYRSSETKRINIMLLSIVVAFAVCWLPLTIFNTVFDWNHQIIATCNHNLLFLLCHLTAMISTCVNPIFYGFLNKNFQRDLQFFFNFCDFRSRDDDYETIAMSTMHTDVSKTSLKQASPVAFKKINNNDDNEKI
Nature of the data set: Binding affinity to neuropeptide Y1 receptor in human MCF7 cells. Type of data set: cell-based.

Data set [2] concerns the target T1, Neuropeptide Y receptor type 1. Put plainly: Binding affinity to neuropeptide Y1 receptor in human SK-N-MC cells. Type of data set: cell-based.
Data set [3] shares this target. Nature of the data set: Binding affinity to neuropeptide Y1 receptor in human SK-N-MC cells by kinetic experiment. Type of data set: cell-based.
A short description of data set [4]: Chemical stability of compound assessed as half life. Type of data set: physicochemical.
Data set [5] concerns the target T1, Neuropeptide Y receptor type 1. Nature of the data set: Binding affinity to neuropeptide Y1 receptor in human MCF7 cells by kinetic experiment. The data set is classed as cell-based.
Data set [6] shares this target. Put plainly: Displacement of [3H]propionyl-pNPY from neuropeptide Y1 receptor in human SK-N-MC cells. The data set is classed as cell-based.
The target is the same in data set [7]. Put plainly: Displacement of [3H]UR-MK114 from neuropeptide Y1 receptor in human SK-N-MC cells. Type of data set: cell-based. A general note: Loss of bound radioactivity is the signal in a displacement assay; it reports binding, not function.
The target in data set [8] is T2, Neuropeptide Y receptor type 2 (Homo sapiens, UniProt P49146).
T2 sequence (P49146 whole entry): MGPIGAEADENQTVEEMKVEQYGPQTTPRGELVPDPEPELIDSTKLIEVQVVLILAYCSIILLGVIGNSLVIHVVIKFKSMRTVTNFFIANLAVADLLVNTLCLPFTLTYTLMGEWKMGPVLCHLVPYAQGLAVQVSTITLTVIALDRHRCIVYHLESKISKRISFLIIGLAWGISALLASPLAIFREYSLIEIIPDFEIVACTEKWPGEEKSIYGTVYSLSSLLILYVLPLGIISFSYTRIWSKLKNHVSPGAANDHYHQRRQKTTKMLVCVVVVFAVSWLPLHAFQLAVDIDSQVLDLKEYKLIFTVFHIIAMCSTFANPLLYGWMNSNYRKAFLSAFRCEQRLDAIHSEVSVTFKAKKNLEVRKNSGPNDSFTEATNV
Nature of the data set: Displacement of Dy-635-pNPY from human neuropeptide Y2 receptor expressed in CHO cells coexpressing Galphaqi5 and aequorin by flow cytometric assay. Type of data set: cell-based. For orientation: Flow cytometry measures light scatter and fluorescence of single cells or particles in a stream.

In data set [9] the target is T3, Neuropeptide Y receptor type 5 (Homo sapiens, UniProt Q15761).
T3 sequence (Q15761 whole entry): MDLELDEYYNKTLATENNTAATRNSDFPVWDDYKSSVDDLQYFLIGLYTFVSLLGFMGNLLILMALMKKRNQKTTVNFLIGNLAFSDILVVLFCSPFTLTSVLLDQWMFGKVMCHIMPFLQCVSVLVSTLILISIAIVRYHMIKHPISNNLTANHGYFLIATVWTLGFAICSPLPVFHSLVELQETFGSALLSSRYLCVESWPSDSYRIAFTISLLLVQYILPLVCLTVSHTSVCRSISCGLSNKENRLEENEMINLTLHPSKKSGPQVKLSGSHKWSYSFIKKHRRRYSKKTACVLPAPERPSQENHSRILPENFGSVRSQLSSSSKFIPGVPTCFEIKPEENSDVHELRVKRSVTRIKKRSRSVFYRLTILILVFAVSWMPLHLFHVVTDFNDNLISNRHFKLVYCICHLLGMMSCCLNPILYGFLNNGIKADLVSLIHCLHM
Nature of the data set: Displacement of Dy-635-pNPY from human neuropeptide Y5 receptor expressed in HEC-1B cells by flow cytometric assay. The data set is classed as cell-based.

In data set [10] the target is Neuropeptide Y receptor type 4 (Homo sapiens, UniProt P50391). Put plainly: Displacement of Cy5-[K4]-hPP from human neuropeptide Y4 receptor expressed in CHO cells coexpressing Galphaqi5 and aequorin by flow cytometric assay. The data set is classed as cell-based.
Data set [11] has as its target T4, Neuropeptide Y receptor type 1 (Homo sapiens) (UniProt P25929).
T4 sequence (whole entry): T1 sequence (P25929 whole entry)

Neuropeptide Y receptor type 4, sequence (P50391 whole entry): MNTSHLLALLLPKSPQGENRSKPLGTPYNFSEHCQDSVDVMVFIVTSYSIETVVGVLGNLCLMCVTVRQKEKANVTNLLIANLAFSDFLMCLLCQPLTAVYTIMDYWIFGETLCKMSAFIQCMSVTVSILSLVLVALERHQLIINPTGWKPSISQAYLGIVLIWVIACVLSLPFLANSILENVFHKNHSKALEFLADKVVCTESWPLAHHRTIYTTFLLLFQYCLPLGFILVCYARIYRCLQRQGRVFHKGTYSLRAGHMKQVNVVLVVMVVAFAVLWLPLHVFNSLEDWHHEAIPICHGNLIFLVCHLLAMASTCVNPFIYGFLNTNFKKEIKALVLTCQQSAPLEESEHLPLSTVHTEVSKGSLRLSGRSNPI

For the molecule `[3H]CC([3H])C(=O)/N=C(/N)NCCC[C@@H](NC(=O)C(c1ccccc1)c1ccccc1)C(=O)NCc1ccc(O)cc1` (some centres undefined), the Kd in [1] is 2.9 nM; in [2], 1.2 nM; in [3], 1.1 nM; in [5], 1.1 nM. Further, the half-life in [4] worked out at 2.2 min.

`CCC/N=C(/N)NCCC[C@@H](NC(=O)C(c1ccccc1)c1ccccc1)C(=O)NCc1ccc(O)cc1` gave a Ki in data set [6] of 27 nM.

Molecule `CCC(=O)/N=C(/N)NCCC[C@@H](NC(=O)C(c1ccccc1)c1ccccc1)C(=O)NCc1ccc(O)cc1` gave an IC50 in data set [7] of 2.24 nM. The molecule also returned a Kd in data set [7] of 1.2 nM. Moreover, the Ki in [7] is 1 nM; in [8], > 10000 nM; in data set [9], > 2000 nM; in data set [10], > 10000 nM; in data set [1] it was 1.2 nM. Moreover, in data set [11], the pKb is 9.1.

As for `COC(=O)NC(N)=NCCC[C@@H](NC(=O)C(c1ccccc1)c1ccccc1)C(=O)NCc1ccc(O)cc1`, the affinity in data set [6], expressed as Ki, was 33 nM. This counts as double-digit nanomolar.

The molecule `CCOC(=O)NC(N)=NCCC[C@@H](NC(=O)C(c1ccccc1)c1ccccc1)C(=O)NCc1ccc(O)cc1` showed a Ki in data set [6] of 4.5 nM.

In [7], `CCNC(=O)/N=C(/N)NCCC[C@@H](NC(=O)C(c1ccccc1)c1ccccc1)C(=O)NCc1ccc(O)cc1` gave an inhibition constant Ki of 0.1 nM.

`CC(=O)/N=C(/N)NCCC[C@@H](NC(=O)C(c1ccccc1)c1ccccc1)C(=O)NCc1ccc(O)cc1` yielded an inhibition constant Ki in data set [6] of 12 nM.

`CCOC(=O)CNC(=O)/N=C(/N)NCCC[C@@H](NC(=O)C(c1ccccc1)c1ccccc1)C(=O)NCc1ccc(O)cc1` showed an inhibition constant Ki in data set [7] of 0.1 nM.

The term Kd denotes the equilibrium constant for the complex coming apart. Lower therefore signals a tighter complex. As a reminder, the half-life is how long it takes for the measured level to halve. What is called Ki is the dissociation constant of the complex between target and ligand, obtained from inhibition or displacement. By IC50 is commonly meant the concentration that inhibits the measured activity by half. As usually defined, the pKb is −log10 of the Kb, conventionally taken in molar units.
